Ki, Activity and ED50 data for 17 compounds are collected here from ChEMBL document CHEMBL4330089, “Exploring structural properties of potent human carbonic anhydrase inhibitors bearing a 4-(cycloalkylamino-1-carbonyl)benzenesulfonamide moiety” (Eur J Med Chem, 2019).

Each structure is given as a SMILES string. Activity calls are given as the source filed them. No cut-off for these calls is given here.

One series deals with Carbonic anhydrase 9 (Homo sapiens, UniProt Q16790).
The subject of series [1] is Mus musculus. Nature of the series: Anticonvulsant activity in ip dosed mouse assessed as reduction in PTZ-induced seizures pretreated for 30 mins followed by PTZ addition. The format is functional, organism-based.
The nature of series [2]: Toxicity in mouse in mouse model of PTZ-induced seizures assessed as clonus occurance at 20 to 30 mg/kg, ip pretreated for 30 mins followed by PTZ addition. The format is organism-based. As to conditions: in vivo.
The nature of series [3]: Toxicity in mouse assessed as sedation at 20 to 30 mg/kg. The conditions noted are these: in vivo. In kind it is organism-based.
The species named for series [4] is Mus musculus. Nature of the series: animal or person.
Description: Anticonvulsant activity in mouse assessed as reduction in PTZ-induced seizures

As a reminder, the Ki is a dissociation constant, usually derived from enzyme kinetics or from competition with a known ligand. A high value points to a looser hold on the target. The term ED50 denotes the midpoint of the dose-response relation.

Description for Carbonic anhydrase 9: Inhibition of human carbonic anhydrase-9 catalytic domain assessed as reduction in CO2 hydration after 15 mins by phenol red dye based stopped flow assay

On Carbonic anhydrase 9, `N#CC1(c2ccccc2)CCN(C(=O)c2ccc(S(N)(=O)=O)cc2)CC1` returned a Ki of 18.4 nM.
On to `NS(=O)(=O)c1ccc(C(=O)N2CCC(O)(c3ccc(Br)cc3)CC2)cc1`, for which, in the series with Mus musculus [1], the outcome was Active. Further, the Activity entry in series [2] and in series [3] was “Toxic” each time. Further, the Ki at Carbonic anhydrase 9 was 4.7 nM.
`NS(=O)(=O)c1ccc(C(=O)N2CCC(O)(c3ccc(Cl)cc3)CC2)cc1` gave a Ki at Carbonic anhydrase 9 of 24.9 nM.
In the case of `NS(=O)(=O)c1ccc(C(=O)N2CCCCCC2)cc1`, the affinity on Carbonic anhydrase 9 corresponds to a Ki of 16.8 nM.
Take `NS(=O)(=O)c1ccc(C(=O)N2CCN(Cc3ccc(F)cc3)CC2)cc1`: the outcome in the series with Mus musculus [1] was Active. Besides, the Activity entry in series [2] and in series [3] was “Toxic” in each case. At Carbonic anhydrase 9, this compound had a Ki of 45.1 nM.
On Carbonic anhydrase 9, `CC(=O)C1(c2ccccc2)CCN(C(=O)c2ccc(S(N)(=O)=O)cc2)CC1` registered a Ki of 3.1 nM.
`NS(=O)(=O)c1ccc(C(=O)N2CCCCC2)cc1`: at Carbonic anhydrase 9, the affinity corresponds to a Ki of 3.1 nM.
In the case of `NS(=O)(=O)c1ccc(C(=O)N2CCC(c3ccccc3)CC2)cc1`, in the series on Mus musculus [1], the result was Active. Also, the Activity result in series [2] and in series [3] was “Toxic” each time. This compound also yielded a Ki at Carbonic anhydrase 9 of 3.3 nM.
Turning to `CC1CCCCN1C(=O)c1ccc(S(N)(=O)=O)cc1` (centres undefined), the Ki on Carbonic anhydrase 9 turned out to be 2.6 nM.
Compound `NS(=O)(=O)c1ccc(C(=O)N2CCN(Cc3ccccc3)CC2)cc1` showed a Ki at Carbonic anhydrase 9 of 33.1 nM.
Compound `CC1CCCN(C(=O)c2ccc(S(N)(=O)=O)cc2)C1` (centres undefined) returned a Ki on Carbonic anhydrase 9 of 2.4 nM.
`CC1(C)O[C@@H]2[C@@H](CO[C@@]3(COS(N)(=O)=O)OC(C)(C)O[C@@H]23)O1` [TOPIRAMATE] displayed a 50% effective dose (ED50) in the series listed under Mus musculus [4] of 22 mg/kg.
`NS(=O)(=O)c1ccc(C(=O)N2CCC(Cc3ccccc3)CC2)cc1`: the inhibitory constant (Ki) on Carbonic anhydrase 9 amounted to 7 nM.
`NS(=O)(=O)c1ccc(C(=O)N2CCN(c3ccccc3)CC2)cc1` came in with a Ki at Carbonic anhydrase 9 of 4.8 nM.
The compound `CC1CCN(C(=O)c2ccc(S(N)(=O)=O)cc2)CC1` displayed a Ki at Carbonic anhydrase 9 of 3.4 nM.
Take `NS(=O)(=O)c1ccc(C(=O)N2CCC(O)(c3ccccc3)CC2)cc1`: the affinity on Carbonic anhydrase 9, expressed as Ki, was 22.6 nM.
Consider `NS(=O)(=O)c1ccc(C(=O)N2CCN(C(c3ccccc3)c3ccccc3)CC2)cc1`, for which the result in the series on Mus musculus [1] was Active. Also, the Activity entry in series [2] and in series [3] was “Toxic” each time. Besides, the Ki at Carbonic anhydrase 9 is 28.2 nM.
